Source: patent US8859625B2, “Methods to prepare penta-1,4-dien-3-ones and substituted cyclohexanones and derivatives with antitumoral and antiparasitic properties, the compounds and their uses” (Universidade Bandeirante de Sao Paulo-Academia, Paulista …, priority 2006, dated 2014)
Like-named read-outs stand apart in the source and are kept apart here.

Tests used:
B16F10 melanoma = B16F10 melanoma tumors implanted in C57BL/6J mice, intraperitoneal treatment; tumor area and volume; assay type: in vivo; conditions: diluted in Miglyol 810, intraperitoneal 100 μl daily, 14 days
Method: After the Day 4 of tumor cells implant (2×10^5 tumoral cells/mL), the animals were splitted in two groups: the test group, treated with HB-1 compound diluted in Miglyol 810® and the control group, which received only the diluent (Miglyol 810®) in the same volume as the test group. The animals were daily treated by intraperitoneal route. Concomitantly, measurements of animal weight and tumor size (two measures—length×width) were performed and tumor aspect registered by photographies.
After the Day 14, the animals were sacrificed by cervical displacement, tumors were removed, and necropsy performed to remove all internal organs and macroscopic lesions for hystopathologic analysis.
Tumoral parameters were obtained by calculation of tumor average area (A) and volume (V), through the following formulas A=πR^2 and V=4/3πR^3, where (R=average tumor radius). […]
After tumoral cell implant, the animals were treated with the HB-2 compound diluted in Miglyol 810® and with (HB2+HB-1) conjugate whereas the control group received the same volume of diluent and by the same administration route (intraperitoneal—100 μl). Daily, the animals received the compounds (100 μl) and the control group received Miglyol 810®, the animals were weighted, and the tumors were measured (length×width) and photographed. […]

[1] = tested on: human fibroblasts of normal skin; experiment: MTT cytotoxic and antiproliferative effects on human fibroblasts of normal skin; assay type: cell-based; conditions: diluted in Miglyol 810, 24 hours
Method: Analysis of Cytotoxic Effects by the MTT Method and Antiproliferative Effects for HB-2 Compound Diluted in Miglyol 810® and Miglyol 810® Control on Human Fibroblasts of Normal Skin.
Skin fragments were asseptically collected during surgical procedures for tissue remotion in aesthetic surgery and immediately transferred to 50 mL sterile vials containing HAM F-12 (Gibco) culture medium supplemented with 20% of bovine fetal serum. Fragments were chopped, cleaned, and the smaller fragments were cultivated in Petri dishes in a Ham-F12 culture medium supplemented with 10% bovine fetal serum, and kept in humidified stoven at 37° C. and 5% C02.
When attained subconfluence, the cells were trypsinized for 5 minutes, inactivated with 10% bovine fetal serum, centrifuged for 10 minutes at 2000 rpm at 4° C., transferred to 96 well flat bottom plates, and cultivated for 24 hours in a CO2 5% stoven. Fibroblasts were treated for 24 hours with different concentrations of HB-2 compound diluted in Miglyol 810® and the control group received the same volumes of Miglyol alone; cytotoxic and antiproliferative effects were evaluated by the MTT colorimetric method.

[2] = Acute and subchronic toxicology in Balb-c mice by the endovenous route; assay type: in vivo
Method: Acute and Subchronic Toxicology of DM-1 in Balb-c Mice by the Endovenous Route.
Balb-c mice were weighted and housed in the biotery, subdivided into groups of 05 animals per cage and, after two weeks, received the DM-1 compound in different concentrations by the endovenous route. The compound was administered in a 0.2 mL volume using microseringe, for all concentrations, through the retro-orbital venous plexus.

T lymphocytes = experiment: Cytotoxic and proliferative activity on T lymphocytes (MTT, compared to PHA); assay type: cell-based, C57BL/6J mice
Method: Preparation of T Lymphocytes
Groups composed by 5 C57BL/6J mice of 2 months of age were sacrificed by cervical displacement and its lymph nodes chain from axillary, popliteal, and mesenteric regions were removed under sterile conditions. Lymph nodes were maintained in RPMI-1640 culture medium supplemented with 10% inactivated bovine fetal serum at 56° C. in the presence of antibiotics, and debridement was performed with the assistance of a bistury. The resulting cell suspension was filtered through 30 μm dialysis membrane and centrifuged for 10 minutes at 1800 rpm at 4° C. Cell pellet was resuspended in 5 mL RPMI complete medium and, after that, incubated in Petri dishes containing 10 mL bovine fetal serum for 1 hour in stove, at 37° C. and 5% CO2. […] Cell concentration was adjusted in Mallassez chamber to a 5×10^5 cells/mL concentration and cell viability was determined by the exclusion method with Trypan blue.
Cytotoxic and proliferative activities were determined in a 96 well plate and compared to mitogenic activity of phytohemagglutinin (PHA) and evaluated by the MTT calorimetric method. The obtained values were expressed as percentage.
The data of each experiment were statistically analysed by the ANOVA variance test with de p<0.05 significance.

B16F10 melanoma cells = experiment: Cytotoxic and antiproliferative effects by the MTT colorimetric method on B16F10 melanoma cells; assay type: cell-based, murine; conditions: for IC50: Mus musculus
Text: Analysis of Cytotoxic and Antiproliferative Effects of HB-1 Compound and Miglyol 810® as Control by the MTT Colorimetric Method on B16F10 Melanoma Cells.
The colorimetric methodology for the respiratory route of mitochondria MTT (3-(4,5-dimethylthiazol-2-yl)2,5-diphenyl tetrazolium bromide) was used, as described by MOSMANN (1983). This method is based on the reduction of MTT to formazan by living cells. After growth and in vitro confluence of normal and tumoral cells, different concentrations of the HB-1 compound diluted in Miglyol 810® and the diluent-control (Miglyol 810®) have been added on the adhering cells, incubated for 24 hour. After the referred period, 10 μl of MTT (5 mg/mL) were added and incubated for 3 hours in stove with 5% CO2 at 37° C. After this period, the content of the culture plates were centrifuged for 2 minutes at 1800 rpm, at 4° C., the supernatant was removed and 100 μL of dimethyl sulfoxide (DMSO) were added to dissolve formazan crystals previously constituted and precipitated. The absorbances were obtained by an ELISA reader at 540 nm (TiterTek Multiskan) wavelength, with the results obtained shown in FIG. 12.
IC50 Evaluation for B16F10 Melanoma Cells, Obtained from the Linear Equation.

[3] = cited from earlier work

**Q.** For `COc1cc(C=CC(=O)C=Cc2ccc(OC(C)=O)c(OC)c2)ccc1OC(C)=O` [HB-2, 4-[5-(4-acetoxy-3-methoxy-phenyl)-3-oxo-penta-1,4-dienyl]-2-methoxy-phenylacetate], which “reduction of tumoral burden (tumor area and volume)” value (B16F10 melanoma) is on record?
**A.** 60%

**Q.** And the “cytotoxic effect in normal human fibroblasts” value [1]?
**A.** no cytotoxic effect was observed

**Q.** What does the source list for `COc1cc(/C=C/C(=O)/C=C/c2ccc([O-])c(OC)c2)ccc1[O-].[Na+].[Na+]` [DM-2, disodium 3-oxo-penta-1,4-dienyl-bis(2-methoxy-phenolate)]?
**A.** LETAL DOSE 50% ([2]; comparison table, own compound): 700 mg/kg; toxic activity on normal cells (T lymphocytes; T lymphocytes): no toxic activity on normal cells; proliferative activity of T lymphocytes (T lymphocytes; different concentrations, compared to PHA 2.5 and 5.0 μg): induced no proliferative activity; in vitro efficacy in relation to the monosodium DM-1 compound, fold smaller (B16F10 melanoma cells): around 6.0 fold; IC50 (B16F10 melanoma cells; B16-F10, read-out: DOSE, footnote: obtained by preclinic experimental models): 1.9 mg/L; IC50 (B16F10 melanoma cells; B16-F10, sodium salts, B16F10 murine melanoma, MTT, read-out: IC50): 7.95 mg/L

**Q.** Which “50% LETHAL DOSE” value ([3]; background table) does the source give for `COc1cccc2c1C(=O)c1c(O)c3c(c(O)c1C2=O)C[C@@](O)(C(=O)CO)C[C@@H]3O[C@H]1C[C@H](N)[C@H](O)[C@H](C)O1` [Doxorubicin] here?
**A.** 20 mg/kg

**Q.** What about the “LETAL DOSE 50%” value ([3]; comparison table, drugs of the therapeutics) of the same compound?
**A.** 20 mg/kg

**Q.** What does the source list for `COc1cc(/C=C/C(=O)/C=C/c2ccc(O)c(OC)c2)ccc1[O-].[Na+]` [DM-1, sodium 4-[5-(4-hydroxy-3-methoxy-phenyl)-3-oxo-penta-1,4-dienyl]-2-methoxy-phenolate]?
**A.** LD50 compared to doxorubicin, fold smaller ([2]; Balb-c, mouse, in vivo, 24 h): 35 fold; 50% lethal dose (DL50) ([2]; endovenous route): 14 mg/kg; maximum tolerable dose ([2]; endovenous route): 14 mg/kg; behavioral alteration after the administration ([2]; endovenous, 0.2 mL via retro-orbital venous plexus): no behavioral alteration was observed; macroscopic and hystopathologic alterations of the internal organs ([2]; necropsy at Day 30): no significant macroscopic and hystopathologic alterations; acute respiratory and cardiac toxicity ([2]; preclinic tests): has not present any suggestive effect of acute respiratory and cardiac toxicity; increase in cytotoxic effects (in vitro efficacy) (B16F10 melanoma cells; monosodium composition relative to HB-1): 7.0 fold
